By IC50 is commonly meant the point on the concentration scale where inhibition reaches its midpoint. A low value points to greater potency in that assay.

This assay deals with Beta-secretase 1 (Homo sapiens, UniProt P56817). Nature of the assay: Inhibition of BACE1 by fluorescence assay.
Beta-secretase 1, sequence (P56817 whole entry): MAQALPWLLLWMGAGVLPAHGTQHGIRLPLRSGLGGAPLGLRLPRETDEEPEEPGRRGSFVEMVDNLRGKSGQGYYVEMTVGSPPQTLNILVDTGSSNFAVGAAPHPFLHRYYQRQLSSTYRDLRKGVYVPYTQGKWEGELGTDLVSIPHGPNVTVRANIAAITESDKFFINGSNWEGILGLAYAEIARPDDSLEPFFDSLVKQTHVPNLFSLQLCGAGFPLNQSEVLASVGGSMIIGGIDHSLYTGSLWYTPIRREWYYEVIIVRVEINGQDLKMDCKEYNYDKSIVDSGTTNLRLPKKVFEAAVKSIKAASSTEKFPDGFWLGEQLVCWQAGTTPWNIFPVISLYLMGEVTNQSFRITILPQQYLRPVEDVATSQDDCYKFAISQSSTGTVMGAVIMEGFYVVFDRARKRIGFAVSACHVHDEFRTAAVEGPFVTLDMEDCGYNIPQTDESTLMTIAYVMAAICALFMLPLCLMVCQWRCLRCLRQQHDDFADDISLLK
With `O=S(=O)(c1ccc(Cl)cc1)N(CCc1ccccc1)C[C@H](O)CN1CCN(C(c2ccccc2)c2ccccc2)CC1`, the IC50 worked out at 2.3 µM.

Regarding `O=S(=O)(c1ccc(Cl)cc1)N(CCc1ccccc1)C[C@@H](O)CN1CCN(C(c2ccccc2)c2ccccc2)CC1`, the concentration for half-maximal inhibition (IC50) was determined as 1.9 µM. This IC50 and that of the compound before are within 1.5-fold of each other.

The compound `O=S(=O)(c1ccc(Cl)c(Cl)c1)N(CC1CC1)C[C@H](O)CN1CCN(C(c2ccccc2)c2ccccc2)CC1` had a 50% inhibitory concentration (IC50) of 5.4 µM.

`O=S(=O)(c1ccc(Cl)c(Cl)c1)N(CC1CC1)C[C@@H](O)CN1CCN(C(c2ccccc2)c2ccccc2)CC1`: the midpoint of inhibition, the IC50, lay at 4.7 µM. This IC50 and that of the compound before are within 1.5-fold of each other.

For `O=S(=O)(c1ccc(Cl)cc1)N(Cc1ccccc1)C[C@H](O)CN1CCN(C(c2ccccc2)c2ccccc2)CC1`, half-maximal inhibition (IC50) required 6.3 µM.

`O=S(=O)(c1ccc(Cl)cc1)N(Cc1ccccc1)C[C@@H](O)CN1CCN(C(c2ccccc2)c2ccccc2)CC1` gave an IC50 of 5.4 µM.

On to `O=S(=O)(c1ccccc1)N(CCc1ccccc1)C[C@H](O)CN1CCN(C(c2ccccc2)c2ccccc2)CC1`, for which the IC50 was 5.1 µM. This IC50 and that of the compound before are within 1.5-fold of each other.

Consider `O=S(=O)(c1ccccc1)N(CCc1ccccc1)C[C@@H](O)CN1CCN(C(c2ccccc2)c2ccccc2)CC1`, for which the IC50 was 6.9 µM.
